# In PMC6406907, “A H2AX–CARP-1 Interaction Regulates Apoptosis Signaling Following DNA Damage” (Cancers, 2019):
# No end group written: not given here. HA = not defined here
# Test system: HeLa cells
# Test: Transduction/localization of TAT-tagged proteins, HeLa
# Type: cell-based, human
# Settings: 300 μg/mL, confocal
# Method: Cells were plated onto chamber slides one day before treatment. Following treatment of cells with respective compounds, the adherent cells were fixed with 5% formaldehyde for 10 min and then washed with phosphate buffered saline (PBS). Samples were blocked (0.5% NP-40, 5% milk powder, 1% fetal bovine serum) for 30 min. After a single wash with PBS, cells were incubated with primary antibodies for 45 to 60 min. Coverslips were washed with PBS and then incubated with secondary antibodies for another 45 to 60 min. They were then washed with PBS and mounted with 0.1 μg/mL 4′,6′-diamidino-2-phenylindole (DAPI) containing mounting solution. […]
# We further tested whether and the extent to which transient and ectopic expression of CARP-1 (636–650) peptide would also interfere with the cell-growth inhibition by Adriamycin. […] The wild-type MDA-MB-468 or HeLa cells were pre-incubated with His-TAT-HA-EGFP or His-TAT-HA-CARP-1 (636–650) proteins, and presence of GFP and CARP-1 (636–650) was determined by immuno-cytochemical staining followed by photography using a confocal microscope as above. […]
# Figure S9. […] Multiple cells from each of the confocal images in the γH2AX column of Figure 8C were subjected to quantitation for levels of γH2AX. The quantitation of the images of stained cells was carried out by using ImageJ software (imagej.nih.gov/ij/plugins/track/jacop2). […]
substance,measurement,value
"His-TAT-HA-CARP-1 (636–650): His-TAT-HA-tagged CARP-1 (636–650) peptide, >95% purity, commercially synthesized ({His-TAT-HA}-PKTMKVNDLRKELES; reading uncertain; UniProt Q8IX12 636-650, looked up, fragment)",cellular localization after transduction,predominantly present in the cytoplasmic region
